From patent US10294202B2, “Pyrrolidinones as herbicides” (FMC Corporation, priority 2013, dated 2019)

Columns and labels:
[1] = tested on: ryegrass, Italian; test: Test A pre-/postemergence herbicide test; type: in vivo, Lolium multiflorum
Method in brief: (§1)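 Seeds in loam–sand blend received preemergence directed soil spray; separately, plants 2–10 cm at one- to two-leaf stage received postemergence spray, both with test chemicals in non-phytotoxic solvent with surfactant. After ~10 days in greenhouse, injury rated visually against untreated controls, 0 (no effect) to 100 (complete control).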

[2] = tested on: blackgrass; test: Test A postemergence herbicide test; type: in vivo, Alopecurus myosuroides
Method in brief: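 Injury was rated visually about 10 days after treatment on a 0 (no effect) to 100 (complete control) scale, compared with untreated plants. Test chemicals were sprayed postemergence onto greenhouse plants 2–10 cm high at one to two leaves, grown in a loam–sand blend.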

[3] = tested on: velvetleaf; test: Test A pre-/postemergence herbicide test; type: in vivo, Abutilon theophrasti
Method in brief: as §1

[4] = Postemergence, 125 g ai/ha, visual rating on 0 to 100 scale (0 no effect, 100 complete control), approx. 10 days
[5] = Postemergence, 125 g ai/ha, 0 to 100 scale, 0 is no effect, 100 is complete control
[6] = Postemergence, 500 g ai/ha, 0 to 100 scale (0 no effect, 100 complete control)
[7] = Preemergence, 125 g ai/ha, 0 to 100 scale where 0 is no effect and 100 is complete control
[8] = preemergence, 500 g ai/ha, 0 to 100 scale, 0 is no effect and 100 is complete control
[9] = Preemergence, 500 g ai/ha, visual rating on 0 to 100 scale (0 no effect, 100 complete control)
[10] = 125 g ai/ha, visual rating on 0 to 100 scale (0 no effect, 100 complete control), approx. 10 days
[11] = 500 g ai/ha, 0 to 100 scale (0 no effect, 100 complete control)

SMILES	Plant response rating, Ryegrass, Italian [1, 4]	Plant response rating, Ryegrass, Italian [1, 6]	Plant response rating, Ryegrass, Italian [1, 7]	Ryegrass, Italian plant response rating [1, 9]	Plant response rating, Blackgrass [2, 10]	Plant response rating, Blackgrass [2, 11]	other results
O=C(Nc1ccccc1F)C1C(=S)NCC1c1cccc(C(F)(F)F)c1 (stereo not drawn) [Compound 274]	0						Plant response rating, Ryegrass, Italian ([1]; Postemergence, 1000 g ai/ha, 0 to 100 scale (0 no effect, 100 complete control)): 20; Plant response rating, Ryegrass, Italian ([1]; preemergence, 1000 g ai/ha, 0 to 100 scale): 40; Plant response rating, Blackgrass ([2]; 1000 g ai/ha, 0 to 100 scale (0 no effect, 100 complete control)): 50
O=C1NCC(c2ccc(C(F)(F)F)c(F)c2)C1C(=O)Nc1ccccc1F (racemic) [Compound 246]							Plant response rating, Velvetleaf [3, 5]: 0; Plant response rating, Velvetleaf [3, 6]: 0; Plant response rating, Velvetleaf [3, 7]: 0; Plant response rating, Velvetleaf [3, 8]: 0
CN1CC(c2ccc(C(F)(F)F)cc2)C(C(=O)Nc2ccccc2F)C1=O (stereo not drawn) [Compound 304]	50	50	0	0	50	70	
O=C1NCC(c2cccc(C(F)(F)F)c2)C1C(=O)Nc1cccc(F)c1F (stereo not drawn) [Compound 241]							Plant response rating, Velvetleaf [3, 5]: 0; Plant response rating, Velvetleaf [3, 6]: 20; Plant response rating, Velvetleaf [3, 7]: 0; Plant response rating, Velvetleaf [3, 8]: 0
O=C1NCC(c2ccc(C(F)(F)F)nc2)C1C(=O)Nc1ccccc1F (racemic) [Compound 262]							Plant response rating, Velvetleaf [3, 7]: 0; Plant response rating, Velvetleaf [3, 8]: 0
O=C1NCC(c2cccc(C(F)(F)F)c2)C1C(=O)Nc1cccc(Cl)c1F (stereo not drawn) [Compound 316]	20	30	20	50	30	40	
O=C1NCC(c2ccc(C(F)(F)F)cc2)C1C(=O)Nc1ccccc1Cl (stereo not drawn) [Compound 233]							Plant response rating, Ryegrass, Italian ([1]; 125 g ai/ha, visual rating, 0 to 100 scale, 0 no effect, 100 complete control, approximately 10 days, preemergence): 30; Plant response rating, Ryegrass, Italian [1, 5]: 20; Ryegrass, Italian plant response rating (0 to 100 scale, 0 is no effect, 100 is complete control) ([1]; Postemergence, 500 g ai/ha): 40; Plant response rating, Ryegrass, Italian [1, 8]: 60; Plant response rating, Blackgrass ([2]; 125 g ai/ha, 0 to 100 scale, 0 is no effect, 100 is complete control): 60; Blackgrass plant response rating (0 to 100 scale, 0 is no effect, 100 is complete control) ([2]; 500 g ai/ha): 60
O=C1NCC(c2ccc(F)c(C(F)(F)F)c2)C1C(=O)Nc1ccccc1C(F)(F)F (racemic) [Compound 78]							Plant response rating, Velvetleaf ([3]; Postemergence, 125 g ai/ha, 0 to 100 scale, 0 no effect, 100 complete control): 20; Plant response rating, Velvetleaf [3, 6]: 60; Velvetleaf plant response rating ([3]; Preemergence, 125 g ai/ha, visual rating on 0 to 100 scale (0 no effect, 100 complete control)): 0; Plant response rating, Velvetleaf ([3]; preemergence, 500 g ai/ha, 0 to 100 scale): 30
O=C1NCC(c2cccc(C(F)(F)F)c2)C1C(=O)Nc1ccc(F)c(F)c1F (stereo not drawn) [Compound 315]	20	50	40	70	40	50	
O=C1NCC(c2cccc(Br)c2)C1C(=O)Nc1ccccc1F (stereo not drawn) [Compound 307]	0	0	0	0	30	70	
O=C1NCC(c2cccc(OC(F)F)c2)C1C(=O)Nc1ccc(F)c(F)c1F (stereo not drawn) [Compound 325]	30	50	30	50	50	50	
